The target in the series is ATP-binding cassette sub-family C member 2 (Rattus norvegicus, UniProt Q63120). As to the kind of experiment: TP_TRANSPORTER: Western in vivo SD rat, liver. The format is functional, organism-based, Sprague-Dawley.
Sequence of ATP-binding cassette sub-family C member 2 (Q63120 whole entry): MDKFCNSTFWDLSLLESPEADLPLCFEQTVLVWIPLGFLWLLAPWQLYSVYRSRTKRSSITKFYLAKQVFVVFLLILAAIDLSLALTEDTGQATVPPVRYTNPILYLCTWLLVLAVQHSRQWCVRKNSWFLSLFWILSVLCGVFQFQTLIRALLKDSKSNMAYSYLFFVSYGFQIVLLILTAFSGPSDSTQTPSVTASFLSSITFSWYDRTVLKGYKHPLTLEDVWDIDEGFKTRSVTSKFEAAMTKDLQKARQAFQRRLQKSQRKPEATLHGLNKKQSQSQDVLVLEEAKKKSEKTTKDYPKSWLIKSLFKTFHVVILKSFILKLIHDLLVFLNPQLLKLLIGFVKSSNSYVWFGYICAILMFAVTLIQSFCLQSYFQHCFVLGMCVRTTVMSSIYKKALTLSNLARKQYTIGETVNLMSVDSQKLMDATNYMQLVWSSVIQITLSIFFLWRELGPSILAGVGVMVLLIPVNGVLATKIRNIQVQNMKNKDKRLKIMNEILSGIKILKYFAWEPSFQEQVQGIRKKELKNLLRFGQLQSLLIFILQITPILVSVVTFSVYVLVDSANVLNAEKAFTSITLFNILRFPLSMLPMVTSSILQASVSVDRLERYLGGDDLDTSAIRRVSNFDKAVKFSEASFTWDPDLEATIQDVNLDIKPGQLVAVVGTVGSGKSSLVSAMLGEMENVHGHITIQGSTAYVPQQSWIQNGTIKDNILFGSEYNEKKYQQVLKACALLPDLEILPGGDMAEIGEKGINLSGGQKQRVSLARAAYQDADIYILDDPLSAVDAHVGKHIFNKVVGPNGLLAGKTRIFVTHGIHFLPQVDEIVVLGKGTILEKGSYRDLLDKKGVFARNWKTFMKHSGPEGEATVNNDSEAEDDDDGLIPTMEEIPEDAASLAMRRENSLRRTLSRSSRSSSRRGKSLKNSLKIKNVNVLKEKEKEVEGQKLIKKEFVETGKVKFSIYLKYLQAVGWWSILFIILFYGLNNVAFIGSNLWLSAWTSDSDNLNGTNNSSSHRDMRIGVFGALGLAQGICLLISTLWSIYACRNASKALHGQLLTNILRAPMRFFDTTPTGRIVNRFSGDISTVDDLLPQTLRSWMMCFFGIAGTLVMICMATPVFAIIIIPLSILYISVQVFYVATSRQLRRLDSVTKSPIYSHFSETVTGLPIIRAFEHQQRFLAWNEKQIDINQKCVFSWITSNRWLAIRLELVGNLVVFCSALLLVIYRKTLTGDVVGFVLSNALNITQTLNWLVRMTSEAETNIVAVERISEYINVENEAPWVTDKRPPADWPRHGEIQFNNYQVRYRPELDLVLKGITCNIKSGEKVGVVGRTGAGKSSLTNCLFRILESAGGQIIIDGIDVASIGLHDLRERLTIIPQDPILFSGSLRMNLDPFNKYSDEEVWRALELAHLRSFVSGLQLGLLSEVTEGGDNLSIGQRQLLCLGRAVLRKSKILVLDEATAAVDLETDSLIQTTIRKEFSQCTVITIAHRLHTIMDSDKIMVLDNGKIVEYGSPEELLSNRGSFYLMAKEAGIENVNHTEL

As for `CCC1(c2ccccc2)C(=O)NC(=O)NC1=O` [PHENOBARBITAL], the Activity result was “inducer [+]”.
For `CC(=O)[C@H]1[C@H](C#N)C[C@H]2[C@@H]3CC=C4C[C@@H](O)CC[C@]4(C)[C@H]3CC[C@@]21C` [PREGNENOLONE CARBONITRILE], the Activity result is “inducer [+]”.

(Values after ChEMBL document CHEMBL2074139, “Increase in bile flow and biliary excretion of glutathione-derived sulfhydryls in rats by drug-metabolizing enzyme inducers is mediated by multidrug resistance protein 2” (Toxicol Sci, 2002).)
